Data as given in ChEMBL document CHEMBL5625268, “Identification of novel benzothiazole derivatives as inhibitors of NEDDylation pathway to inhibit the progression of gastric cancer” (Bioorg Med Chem Lett, 2024).
Active and inactive are the calls of the source. No cut-off for these calls is given here.

Columns and labels:
MGC-803 [1] = assay: Induction of apoptosis in human MGC-803 cells assessed as late apoptosis cells at 2 uM incubated for 48 hrs by Annexin V-FITC/PI double staining based flow cytometry analysis (reference value: 1.95 %); assay type: functional
[2] = target: T1, NEDD8 activating enzyme (Homo sapiens) (UniProt Q8TBC4+Q13564); assay: Inhibition of NAE in human MGC-803 cells assessed as reduction in cullin3 neddylation incubated for 24 hrs by Western blot analysis; assay type: cell-based; settings: dose 1-5 µM
MGC-803 [3] = assay: Induction of apoptosis in human MGC-803 cells assessed as early apoptosis cells at 1 uM incubated for 48 hrs by Annexin V-FITC/PI double staining based flow cytometry analysis (reference value: 0.39 %); assay type: functional
MGC-803 [4] = assay: Induction of cell cycle arrest in human MGC-803 cells assessed as accumulation of cells at G1 phase at 1 uM incubated for 24 hrs by flow cytometry analysis (reference value: 64.82%); assay type: functional
MGC-803 [5] = assay: Inhibition of colony formation in human MGC-803 cells incubated for 48 hrs by phase-contrast microscopy; assay type: functional, cell-based; settings: dose 1-4 µM
[6] = Selectivity index, ratio of IC50 for human KYSE-30 cells to IC50 for HUVECs
MGC-803 [7] = assay: Induction of apoptosis in human MGC-803 cells assessed as viable cells at 2 uM incubated for 48 hrs by Annexin V-FITC/PI double staining based flow cytometry analysis (reference value: 97.3 %); assay type: functional; settings: read-out: Activity
[8] = Selectivity index, ratio of IC50 for human MGC-803 cells to IC50 for HUVECs
MGC-803 [9] = assay: Induction of cell cycle arrest in human MGC-803 cells assessed as accumulation of cells in G2/M phase at 1 uM incubated for 24 hrs by flow cytometry analysis (reference value: 13.25%); assay type: functional
A549 = assay: Antiproliferative activity against human A549 cells by CCK8 assay; assay type: functional, cell-based
MGC-803 [10] = assay: Induction of apoptosis in human MGC-803 cells assessed as necrotic cells at 2 uM incubated for 48 hrs by Annexin V-FITC/PI double staining based flow cytometry analysis (reference value: 0.37 %); assay type: functional
[11] = Cytotoxicity against HUVECs incubated for 72 hrs by CCK8 assay; assay type: toxicity, cell-based; settings: human, HUVEC cells
MGC-803 [12] = assay: Induction of apoptosis in human MGC-803 cells assessed as early apoptosis cells at 2 uM incubated for 48 hrs by Annexin V-FITC/PI double staining based flow cytometry analysis (reference value: 0.39 %); assay type: functional
MGC-803 [13] = assay: Induction of apoptosis in human MGC-803 cells assessed as necrotic cells at 1 uM incubated for 48 hrs by Annexin V-FITC/PI double staining based flow cytometry analysis (reference value: 0.37 %); assay type: functional
[14] = target: T1, NEDD8 activating enzyme (Homo sapiens); assay: Inhibition of NAE in human MGC-803 cells assessed as reduction in NAE1-NEDD8 complex incubated for 24 hrs by Western blot analysis; assay type: cell-based; settings: dose 1-5 µM
MGC-803 [15] = assay: Induction of cell cycle arrest in human MGC-803 cells assessed as accumulation of cells at G1 phase at 2 uM incubated for 24 hrs by flow cytometry analysis (reference value: 64.82%); assay type: functional
MGC-803 [16] = assay: Induction of apoptosis in human MGC-803 cells assessed as late apoptosis cells at 4 uM incubated for 48 hrs by Annexin V-FITC/PI double staining based flow cytometry analysis (reference value: 1.95 %); assay type: functional
MGC-803 [17] = assay: Antiproliferative activity against human MGC-803 cells by CCK8 assay; assay type: functional, cell-based
[18] = target: T1, NEDD8 activating enzyme (Homo sapiens); assay: Inhibition of NAE in human MGC-803 cells assessed as reduction in UBC12-NEDD8 complex incubated for 24 hrs by Western blot analysis; assay type: cell-based; settings: dose 1-5 µM
MGC-803 [19] = assay: Induction of cell cycle arrest in human MGC-803 cells assessed as accumulation of cells in G2/M phase at 4 uM incubated for 24 hrs by flow cytometry analysis (reference value: 13.25%); assay type: functional
MGC-803 [20] = assay: Induction of apoptosis in human MGC-803 cells assessed as viable cells at 1 uM incubated for 48 hrs by Annexin V-FITC/PI double staining based flow cytometry analysis (reference value: 97.3 %); assay type: functional; settings: read-out: Activity
MGC-803 [21] = assay: Induction of cell cycle arrest in human MGC-803 cells assessed as accumulation of cells at G1 phase at 4 uM incubated for 24 hrs by flow cytometry analysis (reference value: 64.82%); assay type: functional
MGC-803 [22] = assay: Induction of cell cycle arrest in human MGC-803 cells assessed as accumulation of cells in S phase at 2 uM incubated for 24 hrs by flow cytometry analysis (reference value: 21.93%); assay type: functional
MGC-803 [23] = assay: Induction of ROS generation in human MGC-803 cells at 2 uM incubated for 24 hrs by DCFH-DA staining based flow cytometry analysis (reference value: 3.1%); assay type: functional
KYSE-30 = assay: Antiproliferative activity against human KYSE-30 cells by CCK8 assay; assay type: functional, cell-based
MGC-803 [24] = assay: Induction of apoptosis in human MGC-803 cells assessed as late apoptosis cells at 1 uM incubated for 48 hrs by Annexin V-FITC/PI double staining based flow cytometry analysis (reference value: 1.95 %); assay type: functional
MGC-803 [25] = assay: Induction of cell cycle arrest in human MGC-803 cells assessed as accumulation of cells in S phase at 4 uM incubated for 24 hrs by flow cytometry analysis (reference value: 21.93%); assay type: functional
[26] = Selectivity index, ratio of IC50 for human A549 cells to IC50 for HUVECs
[27] = target: T1, NEDD8 activating enzyme (Homo sapiens); assay: Inhibition of NAE in human MGC-803 cells assessed as reduction in NAE1-NEDD8 complex formation at 5 uM incubated for 24 hrs by Western blot analysis relative to control; assay type: cell-based
MGC-803 [28] = assay: Induction of apoptosis in human MGC-803 cells assessed as necrotic cells at 4 uM incubated for 48 hrs by Annexin V-FITC/PI double staining based flow cytometry analysis (reference value: 0.37 %); assay type: functional
MCF7 = assay: Antiproliferative activity against human MCF7 cells by CCK8 assay; assay type: functional, cell-based
MGC-803 [29] = assay: Induction of cell cycle arrest in human MGC-803 cells assessed as accumulation of cells in G2/M phase at 2 uM incubated for 24 hrs by flow cytometry analysis (reference value: 13.25%); assay type: functional
MGC-803 [30] = assay: Induction of ROS generation in human MGC-803 cells at 4 uM incubated for 24 hrs by DCFH-DA staining based flow cytometry analysis (reference value: 3.1%); assay type: functional
[31] = target: T1, NEDD8 activating enzyme (Homo sapiens); assay: Inhibition of NAE in human MGC-803 cells assessed as reduction in cullin1 neddylation incubated for 24 hrs by Western blot analysis; assay type: cell-based; settings: dose 1-5 µM
MGC-803 [32] = assay: Induction of apoptosis in human MGC-803 cells assessed as early apoptosis cells at 4 uM incubated for 48 hrs by Annexin V-FITC/PI double staining based flow cytometry analysis (reference value: 0.39 %); assay type: functional
MGC-803 [33] = assay: Inhibition of cell migration in human MGC-803 cells assessed as reduction in wound closure rate at 4 uM incubated for 48 hrs by wound healing assay (reference value: 49%); assay type: functional
MGC-803 [34] = assay: Induction of cell cycle arrest in human MGC-803 cells assessed as accumulation of cells in S phase at 1 uM incubated for 24 hrs by flow cytometry analysis (reference value: 21.93%); assay type: functional
MGC-803 [35] = assay: Induction of apoptosis in human MGC-803 cells assessed as viable cells at 4 uM incubated for 48 hrs by Annexin V-FITC/PI double staining based flow cytometry analysis (reference value: 97.3 %); assay type: functional; settings: read-out: Activity
MGC-803 [36] = assay: Induction of ROS generation in human MGC-803 cells at 1 uM incubated for 24 hrs by DCFH-DA staining based flow cytometry analysis (reference value: 3.1%); assay type: functional
MGC-803 [37] = assay: Inhibition of cell migration in human MGC-803 cells incubated for 48 hrs by wound healing assay; assay type: functional, cell-based; settings: dose 1-4 µM
[38] = target: T1, NEDD8 activating enzyme (Homo sapiens); assay: Inhibition of NAE in human MGC-803 cells assessed as reduction in cullin5 neddylation incubated for 24 hrs by Western blot analysis; assay type: cell-based; settings: dose 1-5 µM
[39] = Selectivity index, ratio of IC50 for human MCF7 cells to IC50 for HUVECs

In the case of `CCc1ccc(C(=O)Nc2nc3ccc(NC(=O)C4CCN(Cc5ccccc5)CC4)cc3s2)cc1`, the Activity (MGC-803 [1]) is reported as 18.5%, the inhibition [2] is reported as “Dose-Dependent Effect” and the Activity (MGC-803 [3]) is reported as 3.15%. The Activity (MGC-803 [4]) was 68.08%, the inhibition (MGC-803 [5]) was “Dose-Dependent Effect” and the “Ratio IC50” value [6] was 3.8. For the same compound, the viability at 2 µM (MGC-803 [7]) was 73.3%, the “Ratio IC50” value [8] was 3.8 and the Activity (MGC-803 [9]) was 18.63%. For the same compound, the IC50 (A549) was 870 nM, the Activity (MGC-803 [10]) was 0.23% and the IC50 at 72 h [11] was 6210 nM. The Activity (MGC-803 [12]) was 7.92%, the Activity (MGC-803 [13]) was 0.18% and the inhibition [14] was “Dose-Dependent Effect”. The Activity (MGC-803 [15]) was 61.71%, the Activity (MGC-803 [16]) was 33.8% and the IC50 (MGC-803 [17]) was 1630 nM. The inhibition [18] was “Dose-Dependent Effect”, the Activity (MGC-803 [19]) was 37.66% and the viability at 1 µM (MGC-803 [20]) was 86.5%. The Activity (MGC-803 [21]) was 45.22%, the Activity (MGC-803 [22]) was 12.39% and the Activity (MGC-803 [23]) was 13.1%. For the same compound, the IC50 (KYSE-30) was 650 nM, the Activity (MGC-803 [24]) was 10.1% and the Activity (MGC-803 [25]) was 17.12%. For the same compound, the “Ratio IC50” value [26] was 3.8, the inhibition [27] was 100% and the Activity (MGC-803 [28]) was 0.11%. The IC50 (MCF7) was 960 nM, the Activity (MGC-803 [29]) was 25.9% and the Activity (MGC-803 [30]) was 26.4%. The inhibition [31] was “Dose-Dependent Effect”, the Activity (MGC-803 [32]) was 8.54% and the inhibition at 4 µM (MGC-803 [33]) was < 20%. The Activity (MGC-803 [34]) was 13.29%, the viability at 4 µM (MGC-803 [35]) was 57.6% and the Activity (MGC-803 [36]) was 6.8%. The inhibition (MGC-803 [37]) was “Dose-Dependent Effect”, the inhibition [38] was “inactive” and the “Ratio IC50” value [39] was 3.8.
